Data taken from patent publication US11634443B2, “Treprostinil prodrugs” (United Therapeutics Corporation, priority 2019, dated 2023).
Where two headings read alike, the source gives them in different places.

Key:
[1] = Stability and formation of treprostinil in human cryopreserved hepatocytes
[2] = male, Sprague-Dawley, rat, 1 μM, pH 7.4
Procedure: (§1) Mixed-gender human liver microsomes, male Sprague-Dawley rat liver microsomes, and male Beagle dog liver microsomes were purchased from XenoTech. The reaction mixture, minus NADPH, was prepared as described below. […] An aliquot of the reaction mixture (without cofactor) was equilibrated in a shaking water bath at 37° C. for 5 minutes. The reaction was initiated by the addition of cofactor, and the mixture was incubated in a shaking water bath at 37° C. Aliquots (200 μL) were withdrawn at 0, 10, 20, 30, and 60 minutes. Test article samples were immediately combined with 400 μL of ice-cold acetonitrile (ACN) to terminate the reaction. […] The samples were then mixed and centrifuged to precipitate proteins. Aliquots of the supernatant were removed, diluted 1:1 into distilled water containing internal standard, and analyzed by LC-MS/MS against calibration standards prepared in a matched matrix. All samples were analyzed for the dosed prodrugs as well as the drug, treprostinil. The test article concentration was compared to the concentration at time 0 to determine the percent of test article remaining at each time point. Half-lives and clearance were calculated using GraphPad software, fitting to a single-phase exponential decay equation.
Liver Microsomes 0.5 mg/mL
Potassium Phosphate, pH 7.4 100 mM

[3] = Stability and formation of treprostinil in dog cryopreserved hepatocytes
[4] = molecular target: T1, prostaglandin E2 (PGE2) receptor 2 (EP2) (Homo sapiens, UniProt P43116); assay: EP2 receptor cAMP assay (agonist mode); format: cell-based; conditions: Table 24; relative to treprostinil EC50 values; * partial agonists or ambiguous dose-response curves; image character = too high to realistically calculate
T1 construct: expressed in transfected cells; host or cells: HEK293T
Procedure: (§2) Gas Cyclic AMP (cAMP) Assay: In agonist mode testing, cells were seeded in a 384-well plate at an appropriate density and then were treated with compounds and incubated at 37° C. for 20 minutes. The reaction was terminated by sequentially adding sequentially adding trFluor™ Eu-labeled cAMP and trFluor™ 650-labeled anti-cAMP antibody in lysis buffer. […] All testing wells contained 0.1% DMSO in the final concentrations.
(§3) Data in graphs are represented in Mean±SD. Dose-dependent responses were fitted with sigmoidal dose-response curves allowing variable slopes using GraphPad Prism version 6 (Graphpad Prism).

[5] = molecular target: T2, prostaglandin I2 (PGI2) receptor (IP) (Homo sapiens, UniProt P43119); assay: IP receptor cAMP assay (agonist mode); format: cell-based; conditions: Table 24; relative to treprostinil EC50 values; * partial agonists or ambiguous dose-response curves; image character = too high to realistically calculate
T2 construct: expressed in transfected cells; host or cells: CHO-K1
Procedure: as §2, §3

[6] = both, human, 1 μM, pH 7.4
Procedure: as §1
Liver Microsomes 0.5 mg/mL
Potassium Phosphate, pH 7.4 100 mM

[7] = male, Beagle, dog, 1 μM, pH 7.4
Procedure: as §1
Liver Microsomes 0.5 mg/mL
Potassium Phosphate, pH 7.4 100 mM

PGE2 receptor 1 (EP1) = molecular target: T3, PGE2 receptor 1 (EP1) (Homo sapiens, UniProt P34995); assay: EP1 receptor calcium assay (agonist mode); format: cell-based; conditions: Table 24; relative to treprostinil EC50 values; * partial agonists or ambiguous dose-response curves; image character = too high to realistically calculate
T3 construct: expressed in transfected cells; host or cells: HEK293T
T3 sequence (P34995 1-402): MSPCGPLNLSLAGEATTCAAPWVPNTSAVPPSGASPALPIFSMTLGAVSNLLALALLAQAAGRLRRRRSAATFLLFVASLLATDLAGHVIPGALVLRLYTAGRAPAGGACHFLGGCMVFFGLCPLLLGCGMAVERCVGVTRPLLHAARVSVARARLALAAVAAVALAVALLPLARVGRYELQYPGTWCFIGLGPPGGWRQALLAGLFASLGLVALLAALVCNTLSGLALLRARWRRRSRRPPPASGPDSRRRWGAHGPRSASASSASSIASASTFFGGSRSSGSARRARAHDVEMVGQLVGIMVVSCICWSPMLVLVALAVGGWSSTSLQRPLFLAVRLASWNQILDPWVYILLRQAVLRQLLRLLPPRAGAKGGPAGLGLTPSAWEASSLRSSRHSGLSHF
Procedure: Assay Buffer: • EP1 Calcium and DP1 cAMP Assays: HBSS plus 20 mM HEPES • EP2 and IP1 cAMP Assays: 1 mM IBMX in HBSS plus 20 mM HEPES
Cells were thawed from frozen cells and resuspended in assay buffer at desired concentrations. cAMP or Calcium assays were performed according to the manufacturer's protocol using Multiscreen™ TR-FRET cAMP 1.0 No Wash Assay Kit or Multiscreen™ Calcium 1.0 No Wash Kit.
Calcium Assay: Cells were seeded in a 384-well plate at an appropriate density. The calcium assay was conducted according to the manufacturer's protocols (Multiscreen Calcium 1.0 No Wash Assay Kit). The calcium dye loading buffer was added to the cells and incubated for 1 hour at 37° C. For agonist mode, cells were injected with Iloprost control agonist or test compound by FLIPR and calcium mobilization was monitored for 180 seconds with compound injected into the wells at the 19th second. Fluorescent emissions were read at 525 nm with excitation at 490 nm in a FLIPR 384 instrument (Molecular Devices).
Calcium Assay: Calcium assay results are expressed as “RFU” as defined in figure below. Data are represented in Mean±SEM. Dose-response curves were fitted using “Sigmoidal dose-response (variable slope)” function in GraphPad Prism 6. EC50 values were calculated based on the fitted curves.
Prostaglandin receptor activity assessments with treprostinil and treprostinil analogues have been conducted, and a historical, positive control agonist for these receptors, iloprost (for IP, EP2 and EP1) or PGD2 (for DP1), was also included. These studies used cell lines overexpressing either human IP, EP2 or DP1, or EP1 receptors, and following incubation with varying concentrations of compounds, cAMP levels were measured using Fluorescence Resonance Energy Transfer (FRET). The 665/620 (acceptor/donor emission signals) ratio is inversely proportional to the concentration of cAMP.

[8] = human, 1 μM
Procedure: For each of the test articles, 495 μL of skin homogenate was added to triplicate centrifuge tubes. To each tube, 5 μL of a 100 μM solution of test article was added, for a final test article dosing concentration of 1 μM. The tubes were placed onto a Thermomixer and maintained at 37° C. with gentle shaking for the duration of the experiment. At each time point (0, 30, 60, and 120 minutes), a 100 μL aliquot was removed from each tube and combined with 200 μL of acetonitrile to stop the stability reaction. The tubes were mixed and centrifuged at 3000 rpm for 10 minutes. Aliquots of supernatant were removed and diluted 1:1 with distilled water containing internal standard (2 μM treprostinil-d4). Calibration standards for the treprostinil analysis were prepared for each test article in a surrogate matrix (supernatant from a mixture of 1:2 human plasma:acetonitrile), at concentrations ranging from 1 μM to 1 nM. Calibration standards were also diluted 1:1 with distilled water containing internal standard.

[9] = molecular target: T4, prostaglandin D2 (PGD2) receptor 1 (DP1) (Homo sapiens, UniProt Q13258); assay: DP1 receptor cAMP assay (agonist mode); format: cell-based; conditions: Table 24; relative to treprostinil EC50 values; * partial agonists or ambiguous dose-response curves; image character = too high to realistically calculate
T4 construct: expressed in transfected cells; host or cells: HEK293T
T4 sequence (Q13258 1-359): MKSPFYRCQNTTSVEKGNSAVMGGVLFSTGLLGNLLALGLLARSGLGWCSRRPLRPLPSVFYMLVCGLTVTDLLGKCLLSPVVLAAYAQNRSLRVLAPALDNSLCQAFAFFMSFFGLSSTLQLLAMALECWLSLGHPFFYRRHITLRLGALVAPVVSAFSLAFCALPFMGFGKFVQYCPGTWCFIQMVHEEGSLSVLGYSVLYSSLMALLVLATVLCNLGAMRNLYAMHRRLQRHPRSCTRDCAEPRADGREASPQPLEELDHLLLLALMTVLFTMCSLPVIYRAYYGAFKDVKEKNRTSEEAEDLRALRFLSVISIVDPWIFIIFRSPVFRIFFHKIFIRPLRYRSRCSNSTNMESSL
Procedure: as §2, §3

[10] = Stability and formation of treprostinil in rat cryopreserved hepatocytes
[11] = Stability and formation of treprostinil in human liver microsomes; conditions: both, pH 7.4
Procedure: as §1
Liver Microsomes 0.5 mg/mL
Potassium Phosphate, pH 7.4 100 mM

[12] = Stability and formation of treprostinil in rat liver microsomes; conditions: male, Sprague-Dawley, pH 7.4
Procedure: as §1
Liver Microsomes 0.5 mg/mL
Potassium Phosphate, pH 7.4 100 mM

[13] = Stability and formation of treprostinil in dog liver microsomes; conditions: male, Beagle, pH 7.4
Procedure: as §1
Liver Microsomes 0.5 mg/mL
Potassium Phosphate, pH 7.4 100 mM

[14] = cited from earlier work

T1 sequence (P43116 whole entry): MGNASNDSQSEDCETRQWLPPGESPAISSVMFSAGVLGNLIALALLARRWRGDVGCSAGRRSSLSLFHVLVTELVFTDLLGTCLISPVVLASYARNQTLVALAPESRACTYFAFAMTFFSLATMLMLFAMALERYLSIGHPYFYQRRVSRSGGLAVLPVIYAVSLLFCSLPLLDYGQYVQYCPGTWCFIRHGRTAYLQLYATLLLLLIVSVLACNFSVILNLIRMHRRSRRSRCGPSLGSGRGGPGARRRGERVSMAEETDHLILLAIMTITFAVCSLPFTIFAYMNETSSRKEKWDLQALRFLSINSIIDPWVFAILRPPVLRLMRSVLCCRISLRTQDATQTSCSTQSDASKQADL
T2 sequence (P43119 whole entry): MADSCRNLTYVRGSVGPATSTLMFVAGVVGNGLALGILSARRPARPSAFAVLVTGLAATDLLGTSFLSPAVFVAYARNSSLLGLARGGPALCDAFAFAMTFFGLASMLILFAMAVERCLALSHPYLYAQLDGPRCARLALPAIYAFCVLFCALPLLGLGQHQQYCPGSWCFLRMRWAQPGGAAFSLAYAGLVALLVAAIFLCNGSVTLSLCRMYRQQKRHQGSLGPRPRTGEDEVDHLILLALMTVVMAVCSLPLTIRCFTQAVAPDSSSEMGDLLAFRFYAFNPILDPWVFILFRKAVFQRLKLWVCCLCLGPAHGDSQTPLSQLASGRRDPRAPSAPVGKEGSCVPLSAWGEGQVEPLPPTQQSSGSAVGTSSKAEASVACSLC

CCCCC[C@@H](CC[C@@H]1[C@H]2Cc3cccc(OCC(=O)O)c3C[C@H]2C[C@H]1O)OC(C)=O [Prodrug XLIII, 2-(((1R,2R,3aS,9aS)-1-((S)-3-acetoxyoctyl)-2-hydroxy-2,3,3a,4,9,9a-hexahydro-1H-cyclopenta[b]naphthalen-5-yl)oxy)acetic acid]
Treprostinil Concentration, 0 min ([1]; both, human, 0 min, 1 μM, pH 7.4): 0.00744 µM
Treprostinil Concentration, 15 min ([1]; both, human, 15 min, 1 μM, pH 7.4): 0.573 µM
Treprostinil Concentration, 30 min ([1]; both, human, 30 min, 1 μM, pH 7.4): 0.623 µM
Treprostinil Concentration, 60 min ([1]; both, human, 60 min, 1 μM, pH 7.4): 0.54 µM
Treprostinil Concentration, 120 min ([1]; both, human, 120 min, 1 μM, pH 7.4): 0.507 µM
Treprostinil Concentration, 0 min ([2]; 0 min): 0.035 µM
Treprostinil Concentration, 15 min ([2]; 15 min): 0.0741 µM
Treprostinil Concentration, 30 min ([2]; 30 min): 0.111 µM
Treprostinil Concentration, 60 min ([2]; 60 min): 0.145 µM
Treprostinil Concentration, 120 min ([2]; 120 min): 0.206 µM
Treprostinil Concentration, 0 min ([3]; male, Beagle, dog, 0 min, 1 μM, pH 7.4): 0.0381 µM
Treprostinil Concentration, 15 min ([3]; male, Beagle, dog, 15 min, 1 μM, pH 7.4): 0.628 µM
Treprostinil Concentration, 30 min ([3]; male, Beagle, dog, 30 min, 1 μM, pH 7.4): 0.543 µM
Treprostinil Concentration, 60 min ([3]; male, Beagle, dog, 60 min, 1 μM, pH 7.4): 0.446 µM
Treprostinil Concentration, 120 min ([3]; male, Beagle, dog, 120 min, 1 μM, pH 7.4): 0.4 µM
Activity, EP2 Relative to Tre [4]: 461x
Activity, IP Relative to Tre [5]: 632x
Treprostinil Concentration, 0 min ([6]; 0 min): 0.883 µM
Treprostinil Concentration, 15 min ([6]; 15 min): 0.681 µM
Treprostinil Concentration, 30 min ([6]; 30 min): 0.602 µM
Treprostinil Concentration, 60 min ([6]; 60 min): 0.513 µM
Treprostinil Concentration, 120 min ([6]; 120 min): 0.341 µM
Treprostinil Concentration, 0 min ([7]; 0 min): 0.964 µM
Treprostinil Concentration, 15 min ([7]; 15 min): 0.917 µM
Treprostinil Concentration, 30 min ([7]; 30 min): 0.899 µM
Treprostinil Concentration, 60 min ([7]; 60 min): 0.932 µM
Treprostinil Concentration, 120 min ([7]; 120 min): 0.873 µM
Activity, EP1 Relative to Tre (PGE2 receptor 1 (EP1)): 20x*
Treprostinil Concentration, 0 min ([8]; 0 min): 0.0034 µM
Treprostinil Concentration, 30 min ([8]; 30 min): 0.382 µM
Treprostinil Concentration, 60 min ([8]; 60 min): 0.583 µM
Treprostinil Concentration, 120 min ([8]; 120 min): 0.839 µM
Activity, DP1 Relative to Tre [9]: 272x
Treprostinil Concentration, 0 min ([10]; male, Sprague-Dawley, rat, 0 min, 1 μM, pH 7.4): 0.00292 µM
Treprostinil Concentration, 15 min ([10]; male, Sprague-Dawley, rat, 15 min, 1 μM, pH 7.4): 0.161 µM
Treprostinil Concentration, 30 min ([10]; male, Sprague-Dawley, rat, 30 min, 1 μM, pH 7.4): 0.266 µM
Treprostinil Concentration, 60 min ([10]; male, Sprague-Dawley, rat, 60 min, 1 μM, pH 7.4): 0.397 µM
Treprostinil Concentration, 120 min ([10]; male, Sprague-Dawley, rat, 120 min, 1 μM, pH 7.4): 0.503 µM

CCCCC[C@H](O)CC[C@@H]1[C@H]2Cc3cccc(OCC(=O)OCC)c3C[C@H]2C[C@H]1O [Treprostinil ethyl ester]
Activity, EP2 Relative to Tre [4]: 11x
Activity, IP Relative to Tre [5]: 35x
Activity, EP1 Relative to Tre (PGE2 receptor 1 (EP1)): 30x
Activity, DP1 Relative to Tre [9]: 18x

C[C@]12CC[C@H]3[C@@H](CCC4=CC(=O)CC[C@@]43C)[C@@H]1CC[C@@H]2O [Testosterone, testosterone]
hepatocyte CLint at 1 μM ([1]; both, human, hepatocytes, pH 7.4): 95.9 µL/min/1e6 cells
half-life at 1 μM ([3]; male, Beagle, dog, hepatocytes, pH 7.4): 6.5 min
Half-Life [11]: 29.2 min
microsomal CLint [11]: 47.5 µL/min/mg
Half-Life [12]: 1.71 min
microsomal CLint [12]: 809 µL/min/mg
Half-Life [13]: 37.7 min
microsomal CLint [13]: 36.8 µL/min/mg
hepatocyte CLint at 1 μM ([10]; male, Sprague-Dawley, rat, hepatocytes, pH 7.4): 448 µL/min/1e6 cells

CCCCC[C@@H](CC[C@@H]1[C@H]2Cc3cccc(OCC(=O)O)c3C[C@H]2C[C@H]1O)OC(=O)CC [Prodrug LV, treprostinil side chain propionic ester]
Treprostinil Concentration, 0 min [1]: 0.113 µM
Treprostinil Concentration, 15 min [1]: 0.725 µM
Treprostinil Concentration, 30 min [1]: 0.654 µM
Treprostinil Concentration, 60 min [1]: 0.589 µM
Treprostinil Concentration, 120 min [1]: 0.527 µM
Treprostinil Concentration, 0 min [3]: 0.124 µM
Treprostinil Concentration, 15 min [3]: 0.781 µM
Treprostinil Concentration, 30 min [3]: 0.698 µM
Treprostinil Concentration, 60 min [3]: 0.599 µM
Treprostinil Concentration, 120 min [3]: 0.53 µM
Activity, EP2 Relative to Tre [4]: 50x
Activity, IP Relative to Tre [5]: 54x
Activity, EP1 Relative to Tre (PGE2 receptor 1 (EP1)): 122x*
Activity, DP1 Relative to Tre [9]: 94x
Treprostinil Concentration, 0 min [10]: 0.0159 µM
Treprostinil Concentration, 15 min [10]: 0.506 µM
Treprostinil Concentration, 30 min [10]: 0.48 µM
Treprostinil Concentration, 60 min [10]: 0.424 µM
Treprostinil Concentration, 120 min [10]: 0.391 µM

CCCCC[C@H](O)CC[C@@H]1[C@H]2Cc3cccc(OCC(=O)O)c3C[C@H]2C[C@H]1O [treprostinil, Treprostinil]
First-pass effect ([14]; oral delivery, animal studies): approximately 60%
Half-life once absorbed ([14]; regardless of the route of administration): about 1 hour
